The record followed here is patent EP1708721B1, “MYOCARDIAL PERFUSION IMAGING USING ADENOSINE RECEPTOR AGONISTS” (Gilead Sciences, Inc., priority 2004, dated 2005).

The subject of one experiment is awake rats. Kind of experiment: Example 5: sympathoexcitation, heart rate, blood pressure and plasma catecholamines after i.v. bolus. The format is in vivo. As for the experimental part: The present study was carried out to determine whether CVT-3146, a selective A2A adenosine receptor agonist, causes sympathoexcitation. CVT-3146 (0.31µg/kg-50 µg/kg) was given as a rapid i.v. bolus to awake rats and heart rate (HR) and blood pressure (BP) were monitored. CVT-3146 caused an increase in BP and systolic pressure (SP) at lower doses while at higher doses there was a decrease in BP and SP. […] The increase in HR was evident at the lowest dose of CVT-3146 at which there was no appreciable decrease in BP. ZM241385 (30 µg/kg , N=5), an A2A receptor antagonist, attenuated the decrease in BP (CVT-3146: 14±3%, ZM: 1±1 %) and the increase in HR (CVT: 27±3%, ZM: 18±3%) caused by CVT-3146. Pretreatment with metoprolol (MET, 1 mg/kg, n=5), a beta-blocker, attenuated the increase in HR (CVT: 27±3%, MET: 15±2%), but had no effect on hypotension caused by CVT-3146. In the presence of hexamethonium (HEX, 10 mg/kg, n=5), a ganglionic blocker, the tachycardia was prevented (CVT: 27±3%, HEX: -1±2%), but BP was further reduced (CVT: -11±2%, HEX: -49±5%).

Another experiment relates to humans. Kind of experiment: Example 1: open label study, CBFv by Doppler flow wire after IV bolus in catheterization patients. The format is in vivo. The following applies: intracoronary (IC) injection of 18 µg. The protocol:
The purpose of this open label study was to determine the magnitude and duration of effect of CVT-3146 (10-500 µg) on CBFv in humans.
METHODS: Patients undergoing a clinically indicated coronary catheterization with no more than a 70% stenosis in any coronary artery and no more than a 50% stenosis of the study vessel had CBFv determined by Doppler flow wire. Study subject were selected after measuring baseline and peak CBFv after an intracoronary (IC) injection of 18 µg of Ado. Twenty-three patients, who were identified as meeting the study criteria of having a peak to baseline CBFv ratio of ≥ 2.5 in response to Adenosine, received a rapid (≤ 10 sec) peripheral IV bolus of CVT-3146; Doppler signals were stable and interpretable over the time-course of the increase in CBFv in 17 patients.

Experiment [1] relates to subjects (26 men, 9 women). Kind of experiment: Example 6: stress/rest SPECT myocardial perfusion imaging, adenosine versus CVT-3146. The format is in vivo, human. To be noted: SPECT MPI, CVT-3146 400 or 500 mcg IV bolus, A infusion. As for the experimental part: To determine the ability of CVT-3146 to produce coronary hyperemia and accurately detect CAD, 35 subjects (26 men, 9 women; 67±10 years) underwent both A and CVT-3146 stress/rest MPI, with 10.0±9.1 days between studies. […] CVT-3146 [400 mcg (n=18), 500 mcg (n=17)] was administered as an IV bolus immediately followed by a saline flush, and then a Tc-99m radiopharmaceutical [sestamibi (n=34), tetrofosmin (n=1)]. SPECT images were uniformly processed, intermixed with control studies (normal and fixed-only defects), and interpreted by three observers in a blinded fashion using a 17-segment model. Quantitative analysis was also performed using 4D MSPECT. In addition to three separate readings, a consensus interpretation was performed and then a direct, same-screen comparison of A and CVT-3146 images undertaken to determine relative differences, using 5 regions per study.

The next experiment concerns awake dogs. Kind of experiment: Example 8: vasodilator effects in different vascular beds of chronically instrumented dogs. To be noted: 250 µg/kg. The format is in vivo. The text has this: In this study the vasodilator effects of CVT-3146 were compared to those of ADO in different vascular beds in awake dogs. Dogs were chronically instrumented for measurements of the blood flow in coronary (CBF), mesenteric (MBF), hind limb (LBF), and renal (RBF) vascular beds, and hemodynamics.

The mark [2] stands for this setting: pretreatment with metoprolol 1 mg/kg, n=5.
Setting [3] is: in the presence of hexamethonium 10 mg/kg, n=5.

`COCCc1ccc(OCC(O)CNC(C)C)cc1` (stereo not shown) [metoprolol]: in the experiment with awake rats (setting [2]), the “effect on hypotension caused by CVT-3146” value is “no effect” and the “increase in HR caused by CVT-3146” value is reported as 15±2%.

Consider `Nc1nc(NCCc2ccc(O)cc2)nc2nc(-c3ccco3)nn12` [ZM241385], for which, in the experiment with awake rats (with ZM241385 30 µg/kg, N=5), the “decrease in BP caused by CVT-3146” value turned out to be 1±1% and the “increase in HR caused by CVT-3146” value came to 18±3%.

`Nc1ncnc2c1ncn2[C@@H]1O[C@H](CO)[C@@H](O)[C@H]1O` [adenosine]: the “peak to baseline ratio (CBFv)” value in the experiment on humans turned out to be 3.2 ± 0.5. For the same compound, the “summed scores following stress, quantitative methods of analysis” value in experiment [1] (4D MSPECT) stood at 13.7±1.5. The “summed scores following stress, visual” value in experiment [1] (17-segment model) is on record as 13.9±1.5. The “duration for CBF above 2-fold of the baseline” value in the experiment on awake dogs turned out to be 16 ± 3 s.

Consider `C[N+](C)(C)CCCCCC[N+](C)(C)C` [hexamethonium], for which, in the experiment with awake rats (setting [3]), the “BP (change) caused by CVT-3146” value is -49±5% and the “tachycardia (HR change) caused by CVT-3146” value was -1±2%.
